# From US20240376411A1, “IMPROVED PERFUME COMPOSITIONS COMPRISING SULFUR-CONTAINING PRO-FRAGRANCE COMPOUNDS” (FIRMENICH SA, priority 2021, published 2024)
# Test: Identification of perfumery raw materials that promote hydrogen sulfide formation (1:1 w/w mix, storage, smell)
# Format: physicochemical
# Details: raw materials named in Example 2 as not promoting; test conditions not repeated there
# Description: In other words, each of the perfumery raw materials being present in the perfume composition is capable of inducing a hydrogen sulfide smell when being mixed individually in a 1:1 (w/w) ratio with the sulfur-containing pro-fragrance compound and being stored for 2 weeks at 50° C. Preferably, a hydrogen sulfide smell is induced when being mixed in a 1:1 (w/w) ratio with 3-(dodecylthio)-1-(2,6,6-trimethylcyclohex-3-en-1-yl) butan-1-one (HaloScent® D) and stored for 2 weeks at 50° C. Preferably, the mixing is carried out in a 10 mL glass jar. The perfumery raw materials may be used as such or may be dissolved in a solvent, for example at a concentration of from 10% to 50%.
# Perfumery raw materials that promote the formation of hydrogen sulfide from 3-(dodecylthio)-1-(2,6,6-trimethylcyclohex-3-en-1-yl) butan-1-one (HaloScent® D) have been identified by mixing individual perfumery raw materials with 3-(dodecylthio)-1-(2,6,6-trimethylcyclohex-3-en-1-yl) butan-1-one (HaloScent® D) in a 1:1 (w/w) ratio in a 10 mL glass jar and storing said mixture for 2 weeks at 50° C. In case a hydrogen sulfide smell (similar to rotten egg odor) could be perceived after 2 weeks, it has been concluded that the perfumery raw material promotes the formation of hydrogen sulfide from 3-(dodecylthio)-1-(2,6,6-trimethylcyclohex-3-en-1-yl) butan-1-one (HaloScent® D).
row,Compound,promotion of formation of hydrogen sulfide from HaloScent® D
1,CCCCCCOC(C)=O [hexyl acetate],do not promote the formation of hydrogen sulfide
2,"CC(=O)OC1CC2CC1C1CC=CC21 (centres unmarked) [tricyclo[5.2.1.02,6]dec-¾-en-8-yl acetate]",do not promote the formation of hydrogen sulfide
3,CC/C=C\CCOC(=O)OC [(3Z)-hex-3-en-1-yl methyl carbonate],do not promote the formation of hydrogen sulfide
4,"CC1C(C)(C)C2=C(C(=O)CCC2)C1(C)C (centres unmarked) [1,1,2,3,3-pentamethyl-1,2,3,5,6,7-hexahydro-4H-inden-4-one]",do not promote the formation of hydrogen sulfide
5,CC/C=C\CCOC(C)=O [(Z)-3-hexenyl acetate],do not promote the formation of hydrogen sulfide
6,"CC(C)CCCC(C)CCO (racemic) [(+/−)-3,7-dimethyl-1-octanol]",do not promote the formation of hydrogen sulfide
7,"CC(=O)OC(C)(C)Cc1ccccc1 [1,1-dimethyl-2-phenylethyl acetate]",do not promote the formation of hydrogen sulfide
8,C/C=C/c1ccc(O)c(OC)c1 [2-methoxy-4-[(1E)-1-propen-1-yl]phenol],do not promote the formation of hydrogen sulfide
9,C=CCc1ccc(O)c(OC)c1 [2-methoxy-4-(2-propen-1-yl) phenol],do not promote the formation of hydrogen sulfide
10,C=C(OC(C)=O)c1ccccc1 [1-phenylvinyl acetate],do not promote the formation of hydrogen sulfide
11,CCCC(=O)OCCC(C)C [3-methylbutyl butyrate],do not promote the formation of hydrogen sulfide
12,"CC(=O)O[C@@H]1CC2CC[C@]1(C)C2(C)C [(1R,2R)-1,7,7-trimethyl-bicyclo[2.2.1]hept-2-yl acetate]",do not promote the formation of hydrogen sulfide
13,C=CCOC(=O)CCCCC [allyl hexanoate],do not promote the formation of hydrogen sulfide
14,COc1ccc(C)cc1 [1-methoxy-4-methylbenzene],do not promote the formation of hydrogen sulfide
15,"CCCC(=O)OC(C)(C)Cc1ccccc1 [1,1-dimethyl-2-phenylethyl butanoate]",do not promote the formation of hydrogen sulfide
16,COC(=O)c1ccccc1O [methyl 2-hydroxybenzoate],do not promote the formation of hydrogen sulfide
17,allyl(⅔-methylbutoxy)acetate,do not promote the formation of hydrogen sulfide
18,"COC(Cc1ccccc1)OC [(2,2-dimethoxyethyl)benzene]",do not promote the formation of hydrogen sulfide
19,CC(=O)c1ccccc1 [acetophenone],do not promote the formation of hydrogen sulfide
20,CCCC(=O)OCC(C)CC (centres unmarked) [2-methylbutyl butyrate],do not promote the formation of hydrogen sulfide
21,CCCC(=O)OCC [ethyl butanoate],do not promote the formation of hydrogen sulfide
22,"O=C1CCCCCCCCCCCC(=O)OCCO1 [1,4-dioxacycloheptadecane-5,17-dione]",do not promote the formation of hydrogen sulfide
23,"c1ccc(Oc2ccccc2)cc1 [1,1′-oxydibenzene]",do not promote the formation of hydrogen sulfide
24,CCOC(=O)/C=C/c1ccccc1 [ethyl (E)-3-phenyl-2-propenoate],do not promote the formation of hydrogen sulfide
25,C=CCOC(=O)COC1CCCCC1 [allyl (cyclohexyloxy)acetate],do not promote the formation of hydrogen sulfide

# Test: logP above 4 (octanol-water partition coefficient)
# Details: Yes/No
row,Compound,logP > 4
1,CC/C=C\CCOC(=O)c1ccccc1O [(3Z)-3-hexen-1-yl salicylate],Yes
2,3-methyl-4/5-cyclopentadecen-1-one,Yes
3,"tricyclo[5.2.1.0^2,6]dec-3/4-en-8-yl propanoate",Yes
4,"C=CC(C)(O)CCC=C(C)C (racemic) [(+/−)-3,7-dimethyl-1,6-octadien-3-ol]",No
5,N#CC(=C1CCCCC1)c1ccccc1 [cyclohexylidene(phenyl)acetonitrile],No
6,"CC1=CC[C@H](/C=C/C(C)(C)C(C)O)C1(C)C (stereo partly drawn) [(4E)-3,3-dimethyl-5-[(1R)-2,2,3-trimethyl-3-cyclopenten-1-yl]-4-penten-2-ol]",Yes
7,"CC(C)=CCC[C@@H](C)CC#N [(−)-(R)-3,7-dimethyl-6-octenenitrile]",No
8,c1ccc2[nH]ccc2c1 [Indole],No
9,C=CCOC(=O)CCC1CCCCC1 [allyl 3-cyclohexylpropanoate],Yes
10,CC(=O)c1ccc2ccccc2c1 [1-(2-naphthyl)ethanone],No
11,"CC1(C)CCC[C@]2(C)[C@H]3CCO[C@]3(C)CC[C@@H]12 (racemic) [(3aRS,5aSR,9aSR,9bRS)-3a,6,6,9a-tetramethyldodecahydronaphtho[2,1-b]furan]",Yes
12,"CC(=O)C1(C)CC2=C(CCCC2(C)C)CC1C (centres unmarked) [1-(octahydro-2,3,8,8-tetramethyl-2-naphtalenyl)-1-ethanone]",Yes
13,"C=CC(C)CCCC(C)(C)O (racemic) [(+−)-2,6-dimethyl-7-octen-2-ol]",No
14,"CCCCC[C@H]1C(=O)CC[C@@H]1CC(=O)OC (racemic) [methyl 2-((1RS,2RS)-3-oxo-2-pentylcyclopentyl)acetate]",No
15,CC(CO)c1ccccc1 (racemic) [(+/−)-2-phenyl-1-propanol],No
16,CCC(O)COC1CCCCC1C(C)(C)C (racemic) [(+/−)-1-(2-tert-butyl-1-cyclohexyloxy)-2-butanol],Yes
17,OCCc1ccccc1 [2-phenylethanol],No
18,"CCC(=O)OCC(C)(C)O[C@@H](C)[C@@H]1CCCC(C)(C)C1 [(+)-2-{(1S)-1-[(1R)-3,3-dimethylcyclohexyl]ethoxy}-2-methylpropyl propionate]",Yes
19,CC1=CCC(C(C)(C)O)CC1 (racemic) [(+/−)-alpha-terpineol],No
20,"CCC(=CCC1CC=C(C)C1(C)C)CO (racemic) [(+/−)-2-ethyl-4-(2,2,3-trimethyl-3-cyclopenten-1-yl)-2-buten-1-ol]",Yes
21,"C=CC(C)(CCC=C(C)C)OC(C)=O (racemic) [(+/−)-1,5-dimethyl-1-vinyl-4-hexenyl acetate]",Yes
22,CCOc1ccc2ccccc2c1 [2-ethoxynaphthalene],No
23,"Cc1ccc2c(c1)CC(C)(CO)C2 (racemic) [(+/−)-2,5-dimethyl-2,3-dihydro-1H-inden-2-yl)methanol]",No
24,"CCC(C)(O)CCCC(C)C (racemic) [(+/−)-3,7-dimethyl-3-octanol]",No
25,CC(=O)CCc1ccc(O)cc1 [4-(4-hydroxyphenyl)-2-butanone],No
